The text below walks through data of publication PMC11531508 (Scientific Reports, 2024).

The IC50 is the concentration at which inhibition is half-maximal. Low values mean inhibition by little substance, high ones a need for much substance.

AChE (Electrophorus electricus), sequence (O42275 24-633): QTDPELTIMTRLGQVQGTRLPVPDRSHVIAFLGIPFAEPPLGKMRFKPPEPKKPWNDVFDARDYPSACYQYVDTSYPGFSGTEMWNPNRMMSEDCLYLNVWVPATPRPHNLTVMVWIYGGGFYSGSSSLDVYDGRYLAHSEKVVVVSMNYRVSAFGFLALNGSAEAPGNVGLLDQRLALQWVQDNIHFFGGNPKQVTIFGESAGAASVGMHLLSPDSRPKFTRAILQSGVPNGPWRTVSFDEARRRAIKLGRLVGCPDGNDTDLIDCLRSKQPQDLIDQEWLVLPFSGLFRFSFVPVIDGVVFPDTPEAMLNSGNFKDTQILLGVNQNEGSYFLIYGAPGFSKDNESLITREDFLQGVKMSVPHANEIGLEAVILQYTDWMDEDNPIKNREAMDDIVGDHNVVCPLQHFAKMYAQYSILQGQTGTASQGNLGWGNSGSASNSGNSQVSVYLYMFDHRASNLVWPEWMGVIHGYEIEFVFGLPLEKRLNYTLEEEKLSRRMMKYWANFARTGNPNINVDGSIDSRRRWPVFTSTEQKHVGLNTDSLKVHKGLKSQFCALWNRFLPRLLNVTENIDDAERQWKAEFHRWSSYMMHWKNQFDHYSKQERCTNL

The test concerns the target AChE (Electrophorus electricus) (Electrophorus electricus, UniProt O42275). As to the kind of experiment: In vitro acetylcholinesterase inhibition assay. In kind it is biochemical.
Consider `CCOc1cc(-c2nc3ccccc3s2)ccc1OCCCCOc1cc(=O)oc2ccccc12` [Compound 3c, 4-(4-(4-(Benzo[d]thiazol-2-yl)-2-ethoxyphenoxy)butoxy)-2H-chromen-2-one], for which 15.8 ± 0.18 µM corresponded to half-maximal inhibition (IC50).

Regarding `COc1cc(OCCCCCCOc2cc(=O)oc3ccccc23)ccc1-c1nc2ccccc2s1` [Compound 3o, 4-((6-(4-(Benzo[d]thiazol-2-yl)-3-methoxyphenoxy)hexyl)oxy)-2H-chromen-2-one], the IC50 stood at 30.7 ± 0.23 µM. `COc1cc(-c2nc3ccccc3s2)ccc1OCCCCOc1cc(=O)oc2ccccc12` [Compound 3b, 4-(4-(4-(Benzo[d]thiazol-2-yl)-2-methoxyphenoxy)butoxy)-2H-chromen-2-one]: the IC50 was 16.5 ± 0.23 µM. In the case of `COc1cc(-c2nc3ccccc3s2)cc(OC)c1OCCCCOc1cc(=O)oc2ccccc12` [Compound 3d, 4-(4-(4-(Benzo[d]thiazol-2-yl)-2,6-dimethoxyphenoxy)butoxy)-2H-chromen-2-one] it was 6.8 ± 0.1 µM; in that of `O=c1cc(OCCCCCOc2ccc(-c3nc4ccccc4s3)cc2)c2ccccc2o1` [Compound 3f, 4-((5-(4-(Benzo[d]thiazol-2-yl)phenoxy)pentyl)oxy)-2H-chromen-2-one], 8.5 ± 0.18 µM; in that of `COc1cc(-c2nc3ccccc3s2)ccc1OCCCCCOc1cc(=O)oc2ccccc12` [Compound 3g, 4-((5-(4-(Benzo[d]thiazol-2-yl)-2-methoxyphenoxy)pentyl)oxy)-2H-chromen-2-one], 6.8 ± 0.13 µM. For `CCOc1cc(-c2nc3ccccc3s2)ccc1OCCCCCCOc1cc(=O)oc2ccccc12` [Compound 3m, 4-((6-(4-(Benzo[d]thiazol-2-yl)-2-ethoxyphenoxy)hexyl)oxy)-2H-chromen-2-one], it took 27.9 ± 0.2 µM to reach half-maximal inhibition (IC50). Consider `O=c1cc(OCCCCCCOc2ccc(-c3nc4ccccc4s3)cc2)c2ccccc2o1` [Compound 3k, 4-((6-(4-(Benzo[d]thiazol-2-yl)phenoxy)hexyl)oxy)-2H-chromen-2-one], for which the IC50 was determined as 35.8 ± 0.3 µM. Take `COc1cc(OCCCCOc2cc(=O)oc3ccccc23)ccc1-c1nc2ccccc2s1` [Compound 3e, 4-(4-(4-(Benzo[d]thiazol-2-yl)-3-methoxyphenoxy)butoxy)-2H-chromen-2-one]: the IC50 was determined as 18.7 ± 0.28 µM.

Compound `O=c1cc(OCCCCOc2ccc(-c3nc4ccccc4s3)cc2)c2ccccc2o1` [Compound 3a, 4-(4-(4-(Benzo[d]thiazol-2-yl)phenoxy)butoxy)-2H-chromen-2-one] showed a 50% inhibitory concentration (IC50) of 4.23 ± 0.11 µM. With `COc1cc(-c2nc3ccccc3s2)ccc1OCCCCCCOc1cc(=O)oc2ccccc12` [Compound 3l, 4-((6-(4-(Benzo[d]thiazol-2-yl)-2-methoxyphenoxy)hexyl)oxy)-2H-chromen-2-one], the IC50 worked out at 33.2 ± 0.28 µM. In the case of `CCOc1cc(-c2nc3ccccc3s2)ccc1OCCCCCOc1cc(=O)oc2ccccc12` [Compound 3h, 4-((5-(4-(Benzo[d]thiazol-2-yl)-2-ethoxyphenoxy)pentyl)oxy)-2H-chromen-2-one] it was 6.5 ± 0.12 µM. The compound `COc1cc(-c2nc3ccccc3s2)cc(OC)c1OCCCCCOc1cc(=O)oc2ccccc12` [Compound 3i, 4-((5-(4-(Benzo[d]thiazol-2-yl)-2,6-dimethoxyphenoxy)pentyl)oxy)-2H-chromen-2-one] registered an IC50 of 2.7 ± 0.1 µM.

`COc1cc(OCCCCCOc2cc(=O)oc3ccccc23)ccc1-c1nc2ccccc2s1` [Compound 3j, 4-((5-(4-(Benzo[d]thiazol-2-yl)-3-methoxyphenoxy)pentyl)oxy)-2H-chromen-2-one] gave an IC50 of 7.5 ± 0.16 µM. For `COc1cc(-c2nc3ccccc3s2)cc(OC)c1OCCCCCCOc1cc(=O)oc2ccccc12` [Compound 3n, 4-((6-(4-(Benzo[d]thiazol-2-yl)-2,6-dimethoxyphenoxy)hexyl)oxy)-2H-chromen-2-one] the value was 12.1 ± 0.19 µM.
